# From publication PMC8850458, “The AUTOTAC chemical biology platform for targeted protein degradation via the autophagy-lysosome system” (Nature Communications, 2022)
# Where “and” joins values, the source holds several entries; their conditions need not be identical. Equal entries are not always repeated.
# Tests used:
# [1] = PK parameters in ICR mice; assay type: in vivo; settings: single injection
# [2] = target: high-molecular weight tau aggregates (Homo sapiens, UniProt P10636, P618L); test: In vivo oligomerization (aggregation) assay in SH-SY5Y-tauP301L cells; assay type: cell-based; settings: okadaic acid 15 nM, compound 0.1 μM, 24 h
# Method: HEK293T cells were transfected with P301L-tau-EGFP plasmid using Lipofectamine 2000. HEK293T and SHYSY5Y-tau cells were treated with p62-ZZ ligands for 24 h. After incubation on ice for 30 min for supernatant collection, the cells were lysed by a cycle of freezing/thawing and centrifuged at 13,000 g for 10 min. Protein concentration was determined using the Pierce BCA Protein Assay Kit (Thermo Fisher Scientific). Non-reducing 4X LDS sample buffer was added to sample lysate, followed by boiling at 100 °C for 10 min and samples were loaded on a 3% stacking and 8% separating SDS-PAGE. Immunoblotting assays were carried out using anti-GFP antibody (Sigma) to visualize the oligomeric complexes of Tau.
# [3] = target: T1, mutant desminL385P (Homo sapiens, UniProt P17661, L385P); test: WB degradation of mutant desmin in HeLa cells; assay type: cell-based; settings: exogenously expressed
# T1 construct: expressed in transfected cells; host or cells: HeLa, transient
# Method: Adherent cells were washed with phosphate-buffered saline (PBS) and cell pellets were lysed in SDS-based sample buffer (277.8 mM Tris-HCI, pH 6.8, 4.4% LDS, 44.4% (v/v) glycerol) containing beta-mercaptoethanol. Alternatively, cell pellets or protein supernatants were lysed in 5X Laemmli sample buffer. Whole-cell lysates were separated using SDS-PAGE, and transferred onto polyvinyllidene difluoride membranes at 100 V for 2 h at 4 °C. The membrane was incubated with a blocking solution consisting 4% skim milk in PBS solution for 30 min at room temperature and incubated with primary antibodies overnight, followed by incubation with host-specific HRP-conjugated secondary antibodies (1:10000 dilution). For signal detection, the membrane was developed with a mixture of ECL solution (Thermo Fisher Scientific) using X-ray films. Densitometry of developed bands was measured and analyzed with ImageJ (NIH, Bethesda).
# Supplementary Fig. 5. AUTOTACs selectively target pathological aggregation-prone proteins for autophagic degradation. (a) WB in HEK293T cells treated with PBA-1105 (1 μM) and MG132 (1 μM, 24 h) at the indicated time points. (b) ICC of HeLa cells treated with the indicated compounds (1 μM, 24 h). Scale bar, 10 μm. (c) WB in HEK293T cells treated with PBA-1105 (500 nM, 24 h) and MG132 (1 μM, 24 h) under siRNA-mediated knockdown of p62 or ATG7 (20 nM, 48 h). (d) ICC in HeLa cells transiently expressing WIPI2-GFP and treated with Anle138b-F105 (1 μM, 24 h). Scale bar, 10 μm. (e) ICC in HeLa cells treated with […]
# nM, 24 h). (g, h) WB in HeLa cells transiently expressing wild type or mutant (L385P) desmin-flag with LacZ-myc and treated with PBA-1105, PBA-1105b or Anle138b-F105 at the […]
# [4] = tested on: p62^+ERβ^+ puncta; test: ICC of ERβ puncta co-localization in ACHN cells; assay type: cell-based; settings: 24 h; for ERβ-LC3 colocalization, cells of 50 cells counted: single experiments
# Method: Cells were cultured on coverslips coated with poly-L-lysine (Sigma) to observe cellular localization of proteins. Using 4% paraformaldehyde in PBS (pH 7.4), the cells were fixed for 15 min at room temperature and washed three times for 5 min with PBS. After fixing, the cells were permeabilized with 0.5% Triton X-100 in PBS solution for 15 min and washed three times with PBS for 5 min. The cells were blocked containing 2% BSA in PBS solution for 1 h at room temperature. Subsequently, the cells were incubated with primary antibody diluted in 2% BSA/PBS solution overnight at 4 °C, followed by washing the cells three times for 10 min with PBS and incubated with Alexa Fluor-conjugated secondary antibody diluted in 2% BSA/PBS for 30 min at room temperature. Using a DAPI-containing mounting medium (Vector Laboratories), the coverslips were mounted on glass slides. Confocal images were taken by laser scanning confocal microscope 510 Meta (Zeiss) and analyzed by Zeiss LSM Image Browser (ver. 4.2.0.121). […] Quantification results are shown as mean ± S.D. or S.E.M. of three independent experiments
# T1 sequence (P17661 whole entry L385P): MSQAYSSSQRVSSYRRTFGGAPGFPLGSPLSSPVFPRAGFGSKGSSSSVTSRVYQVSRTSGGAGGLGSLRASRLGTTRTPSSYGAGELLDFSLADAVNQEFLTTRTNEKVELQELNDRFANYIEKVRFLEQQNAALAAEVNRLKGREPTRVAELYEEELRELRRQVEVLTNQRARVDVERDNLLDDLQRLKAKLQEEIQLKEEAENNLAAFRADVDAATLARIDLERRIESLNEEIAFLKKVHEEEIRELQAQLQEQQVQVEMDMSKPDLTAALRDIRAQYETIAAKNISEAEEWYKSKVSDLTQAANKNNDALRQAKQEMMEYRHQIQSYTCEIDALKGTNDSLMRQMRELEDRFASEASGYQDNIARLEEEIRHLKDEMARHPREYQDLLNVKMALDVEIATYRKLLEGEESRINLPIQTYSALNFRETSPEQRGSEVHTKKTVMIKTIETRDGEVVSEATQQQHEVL
# high-molecular weight tau aggregates, sequence (P10636 1-441 isoform P10636-8 P301L): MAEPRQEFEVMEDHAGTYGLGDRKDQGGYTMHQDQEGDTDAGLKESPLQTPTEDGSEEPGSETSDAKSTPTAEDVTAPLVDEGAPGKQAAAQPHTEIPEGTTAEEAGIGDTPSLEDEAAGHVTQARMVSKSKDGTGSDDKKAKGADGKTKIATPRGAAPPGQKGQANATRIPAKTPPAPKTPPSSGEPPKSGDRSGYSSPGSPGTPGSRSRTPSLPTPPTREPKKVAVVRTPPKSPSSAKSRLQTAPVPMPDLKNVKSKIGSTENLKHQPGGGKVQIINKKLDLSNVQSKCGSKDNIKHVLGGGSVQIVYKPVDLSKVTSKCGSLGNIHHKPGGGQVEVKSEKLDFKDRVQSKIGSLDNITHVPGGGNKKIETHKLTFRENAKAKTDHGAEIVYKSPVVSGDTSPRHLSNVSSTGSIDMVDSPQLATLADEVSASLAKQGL
SMILES,exposure [1],high-molecular weight tau aggregates [2],degradation of mutant desminL385P [3],"ERβ-LC3 colocalization, AVG of cells of 50 ([4]; 0.5uM)","ERβ-LC3 colocalization, percentage AVG ([4]; 0.5uM) [%]","ERβ-LC3 colocalization, AVG of cells of 50 ([4]; 2.5uM)","ERβ-LC3 colocalization, percentage AVG ([4]; 2.5uM) [%]","ERβ-LC3 colocalization, AVG of cells of 50 ([4]; 10uM + HCQ)","ERβ-LC3 colocalization, percentage AVG ([4]; 10uM + HCQ) [%]","ERβ-LC3 colocalization, cells of 50 cells counted ([4]; 10uM + HCQ)","ERβ-LC3 colocalization, AVG of cells of 50 ([4]; 10uM)","ERβ-LC3 colocalization, percentage AVG ([4]; 10uM) [%]","ERβ-LC3 colocalization, cells of 50 cells counted ([4]; 10uM)"
O=C(CCCc1ccccc1)NCCOCCOCCOCCNCc1ccc(OCc2ccccc2)c(OCc2ccccc2)c1 [PBA-1105],good albeit rapidly metabolized exposure,effectively eliminated high-molecular weight tau aggregates,induced the degradation,–,–,–,–,–,–,–,–,–,–
O[C@H](CNCCOCCOCCOc1ccc(-c2c(-c3ccccc3)nn3c(C(F)(F)F)cc(C(F)(F)F)nc23)cc1)COc1ccc(OCc2ccccc2)c(OCCCc2ccccc2)c1 [PHTPP-1304],–,–,–,5.667,11.3333,12.6667,25.3333,39,78,34 and 42 and 41,29,58,24 and 34 and 29
